Results on three compounds are retold here after US6737434B2, “Imidazole derivatives or their salts” (SSP Co., Ltd., priority 2000, dated 2004).

This assay has as its system human G-CSF-dependent cell strain (BAF/hGCSFR). In words: Induction of cell growth of a human G-CSF-dependent cell strain (WST-1 absorbance), expressed as human-G-CSF equivalent concentration. To be noted: 48 hours incubation, mean±standard error, n=5. In kind it is cell-based. The protocol:
Cloning of human G-CSF receptor gene was performed through RT-PCR by using primers created on the basis of the human G-CSF receptor gene using a human spleen cDNA library. The thus cloned human G-CSF receptor gene inserted to a multicloning site of an expression vector. Subsequently, the gene-inserted expression vector was transformed into E. coli for multiplication, and the expression vector was extracted. An aliquot of the expression vector (20 μg) was added to host cells (BAF/B03) prepared to 5×10^7 cells/800 μL K-PBS (30.8 mM NaCl, 120.7 mM KCl, 8.1 mM Na2HPO4, 1.46 mM KH2PO4, 5 mM MgCl2), followed by standing still at 4° C. for 15 minutes. For gene transfer, electroporation was performed at a voltage of 280 V and a capacitance of 950 μF. After completion of gene transfer, the cells were suspended in a DMEM medium ((+) 10% FCS) containing recombinant human G-CSF (rhG-CSF, 20 ng/mL) and puromycin (2 μg/mL), whereby a human G-CSF dependent cell strain was created.
For studying the cell multiplication ability with respect to rhG-CSF, the following procedure was carried out. Briefly, cells in which the human G-CSF receptor gene had been inserted (BAF/hGCSFR) were collected, and washed with PBS(−). Subsequently, the cells were suspended in DMEM medium, and the medium containing the cells was prepared to the wells of a 96-well plate (5×10^4 cells/well). Then, rhG-CSF was added to the wells (0, 0.006, 0.025, 0.1, 0.4 ng/mL), and the cells in the wells were cultured under 5% CO2 for 48 hours at 37° C. After completion of incubation, a solution of WST-1/1-methoxy PMS was added to the wells (final concentration: 5 mM), and the cells in the wells were cultured in a CO2 incubator for 2 hours. After completion of incubation, the absorbance of the cultured solution was measured at a wavelength of 450 nm. The results are shown in FIG. 1 (mean±standard error, n=5).
A solution prepared by diluting a compound with DMEM was added to the wells of a 96-well microplate (10 μL/well). The human G-CSF-dependent cell strain was added to the wells (5.0×10^4 cells/100 μL), followed by incubation for 48 hours at 37° C. After completion of incubation, a solution of WST-1/1-methoxy PMS (final concentration: 5 mM) was added to the wells, followed by incubation in a CO2 incubator for 2 hours. After completion of incubation, the absorbance was measured at a wavelength of 450 nm. The results are shown in FIG. 2 (mean±standard error, n=5).
Using the test data obtained from Test Example 1, human-G-CSF equivalent concentrations (ng/mL) corresponding to respective compound concentrations employed in Test Example 2 were calculated. The results are shown in Table 1 (mean±standard error, n=5).
A general note: Tetrazolium dyes change colour on reduction, which living cells bring about.

With `CCCCCCCCCOc1ccc(Cl)cc1C(C)(O)Cn1ccnc1` (stereo not drawn) [Compound (1-1), 2-(5-Chloro-2-(n-nonyloxy)phenyl)-1-(1H-1-imidazolyl)-2-propanol], the human-G-CSF equivalent concentration runs as follows: (compound conc. 10^−6 M) 0.131 ± 0.001 ng/mL; (compound conc. 10^−7 M) 0.032 ± 0.0003 ng/mL; (compound conc. 10^−8 M) 0.015 ± 0.0001 ng/mL.

For the compound `CCCCCCCOc1ccc(Cl)cc1C(C)(O)Cn1ccnc1` (stereo not drawn) [Compound (1-2), 2-(5-Chloro-2-(n-heptyloxy)phenyl)-1-(1H-1-imidazolyl)-2-propanol], the human-G-CSF equivalent concentration is recorded as 0.049 ± 0.0004 ng/mL (compound conc. 10^−6 M), 0.037 ± 0.0003 ng/mL (compound conc. 10^−7 M) and 0.013 ± 0.0001 ng/mL (compound conc. 10^−8 M).

Consider `CCCCCCCCOc1ccc(Cl)cc1C(C)(O)Cn1ccnc1` (stereo not drawn) [Compound (1-3), 2-(5-Chloro-2-(n-octyloxy)phenyl)-1-(1H-1-imidazolyl)-2-propanol], for which the human-G-CSF equivalent concentration was 0.057 ± 0.0005 ng/mL (compound conc. 10^−6 M), 0.057 ± 0.0005 ng/mL (compound conc. 10^−7 M) and 0.018 ± 0.0001 ng/mL (compound conc. 10^−8 M).
